What is called IC50 is the midpoint of a concentration-inhibition curve. One may read the EC50 as the concentration giving half of the maximal effect.

This note sets out measurements from ChEMBL document CHEMBL5126517, “Structure-Activity Relationship in the Leucettine Family of Kinase Inhibitors” (J Med Chem, 2022).

For series [1], the target named is Dual specificity protein kinase CLK4 (Mus musculus, UniProt O35493). The experiment in a line: Inhibition of GST-fused mouse recombinant CLK4 expressed in Escherichia coli using GRSRSRSRSRSR peptide as substrate incubated for 30 mins in presence of ATP by scintillation counting method.
Sequence of Dual specificity protein kinase CLK4 (O35493 whole entry, the tested form may be a part): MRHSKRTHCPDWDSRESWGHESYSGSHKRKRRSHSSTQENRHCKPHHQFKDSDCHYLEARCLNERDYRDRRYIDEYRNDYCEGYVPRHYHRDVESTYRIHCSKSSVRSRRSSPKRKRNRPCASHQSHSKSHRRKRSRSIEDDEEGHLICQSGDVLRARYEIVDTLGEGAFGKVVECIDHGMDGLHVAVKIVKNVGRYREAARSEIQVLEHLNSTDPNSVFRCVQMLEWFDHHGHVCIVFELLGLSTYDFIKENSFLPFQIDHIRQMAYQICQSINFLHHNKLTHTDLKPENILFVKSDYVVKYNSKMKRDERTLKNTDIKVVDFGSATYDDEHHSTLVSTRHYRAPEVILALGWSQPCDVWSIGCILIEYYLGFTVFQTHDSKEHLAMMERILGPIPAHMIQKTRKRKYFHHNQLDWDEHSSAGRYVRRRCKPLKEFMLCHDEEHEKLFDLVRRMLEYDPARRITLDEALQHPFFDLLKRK
The target of series [2] is Dual specificity protein kinase CLK1 (Mus musculus, UniProt P22518). As to the kind of experiment: Inhibition of GST-fused mouse recombinant CLK1 expressed in Escherichia coli using GRSRSRSRSRSR peptide as substrate incubated for 30 mins in presence of ATP by scintillation counting method.
Sequence of Dual specificity protein kinase CLK1 (P22518 whole entry, the tested form may be a part): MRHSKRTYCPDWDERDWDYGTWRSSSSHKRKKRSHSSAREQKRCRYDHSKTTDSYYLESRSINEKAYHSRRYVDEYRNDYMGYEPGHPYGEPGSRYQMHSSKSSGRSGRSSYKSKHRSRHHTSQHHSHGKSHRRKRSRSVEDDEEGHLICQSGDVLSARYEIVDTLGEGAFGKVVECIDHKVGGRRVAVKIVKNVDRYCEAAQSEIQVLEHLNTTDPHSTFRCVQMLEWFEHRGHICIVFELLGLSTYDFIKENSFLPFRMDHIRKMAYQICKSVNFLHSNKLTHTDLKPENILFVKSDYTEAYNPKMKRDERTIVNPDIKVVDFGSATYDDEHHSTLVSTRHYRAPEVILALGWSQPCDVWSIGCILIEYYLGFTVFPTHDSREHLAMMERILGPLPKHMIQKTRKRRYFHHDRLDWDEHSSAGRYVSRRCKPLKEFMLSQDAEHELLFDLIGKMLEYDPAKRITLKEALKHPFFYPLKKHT
The target in series [3] is Dual specificity tyrosine-phosphorylation-regulated kinase 1A (Homo sapiens, UniProt Q13627). The experiment in a line: Inhibition of GST-fused human recombinant DYRK1A expressed in Escherichia coli using GRSRSRSRSRSR peptide as substrate incubated for 30 mins in presence of ATP by scintillation counting method.
Series [4] deals with Dual specificity tyrosine-phosphorylation-regulated kinase 1B (Homo sapiens, UniProt Q9Y463).
Sequence of Dual specificity tyrosine-phosphorylation-regulated kinase 1B (Q9Y463 whole entry): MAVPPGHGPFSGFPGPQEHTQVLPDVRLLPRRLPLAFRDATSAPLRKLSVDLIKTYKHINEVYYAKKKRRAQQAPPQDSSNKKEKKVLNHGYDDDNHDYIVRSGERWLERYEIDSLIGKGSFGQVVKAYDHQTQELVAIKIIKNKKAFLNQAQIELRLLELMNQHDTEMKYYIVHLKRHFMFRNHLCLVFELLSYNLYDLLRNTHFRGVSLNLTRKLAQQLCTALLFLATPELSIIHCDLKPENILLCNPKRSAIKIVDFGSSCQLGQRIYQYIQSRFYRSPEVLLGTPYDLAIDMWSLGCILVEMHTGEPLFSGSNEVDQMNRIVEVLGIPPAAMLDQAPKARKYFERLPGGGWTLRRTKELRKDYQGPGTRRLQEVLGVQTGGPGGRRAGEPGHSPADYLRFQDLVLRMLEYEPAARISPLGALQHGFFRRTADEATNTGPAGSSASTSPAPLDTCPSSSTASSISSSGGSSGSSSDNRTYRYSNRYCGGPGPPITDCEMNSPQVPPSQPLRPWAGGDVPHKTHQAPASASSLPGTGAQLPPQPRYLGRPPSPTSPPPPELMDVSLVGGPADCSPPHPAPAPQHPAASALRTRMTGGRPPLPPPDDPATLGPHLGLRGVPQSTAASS
Series [5] addresses T1, Dual specificity tyrosine-phosphorylation-regulated kinase 2 (Homo sapiens, UniProt Q92630).
T1 sequence (Q92630 whole entry): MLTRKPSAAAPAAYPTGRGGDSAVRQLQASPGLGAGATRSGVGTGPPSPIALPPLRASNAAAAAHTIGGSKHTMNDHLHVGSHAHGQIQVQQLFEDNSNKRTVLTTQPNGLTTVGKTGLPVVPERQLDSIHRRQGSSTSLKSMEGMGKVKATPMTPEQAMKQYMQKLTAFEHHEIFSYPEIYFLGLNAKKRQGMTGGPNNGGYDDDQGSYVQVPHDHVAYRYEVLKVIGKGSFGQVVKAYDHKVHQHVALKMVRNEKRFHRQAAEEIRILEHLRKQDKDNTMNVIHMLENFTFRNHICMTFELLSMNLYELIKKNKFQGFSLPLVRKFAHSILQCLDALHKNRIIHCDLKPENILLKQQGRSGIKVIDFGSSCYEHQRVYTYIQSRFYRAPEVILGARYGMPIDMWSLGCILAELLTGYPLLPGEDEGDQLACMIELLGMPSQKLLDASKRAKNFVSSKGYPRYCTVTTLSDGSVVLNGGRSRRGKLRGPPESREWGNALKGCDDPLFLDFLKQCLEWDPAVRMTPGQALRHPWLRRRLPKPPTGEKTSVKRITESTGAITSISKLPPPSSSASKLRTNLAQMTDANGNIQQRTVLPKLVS
As to the kind of experiment: Inhibition of GST-fused human recombinant DYRK2 expressed in Escherichia coli using GRSRSRSRSRSR peptide as substrate incubated for 30 mins in presence of ATP by scintillation counting method.

For series [6], the system named is HT-22. As to the kind of experiment: Neuroprotective activity against glutamate-induced cell death in mouse HT-22 cells treated for 24 hrs by MTS assay. Format: functional, cell-based. The note with it: HT-22, 24 h. Background: Formazan colour is commonly taken as a measure of viable cells.
Series [7] has as its system U2OS. The experiment in a line: Induction of PI3K/mTor-dependent autophagy in human U2OS cells assessed as number of LC3 foci per cell at 10 uM measured after 4 hrs. Format: cell-based. As to conditions: filed as activator.
The target in series [8] is Cannabinoid receptor 1 (Homo sapiens, UniProt P21554). The experiment in a line: Antagonist activity at CP-55940-activated CB1 receptor (unknown origin) at 10 uM by beta-arrestin assay relative to control. Format: functional. More on the design: scale not given: the % may be the effect or the level left.
Sequence of Cannabinoid receptor 1 (P21554 whole entry): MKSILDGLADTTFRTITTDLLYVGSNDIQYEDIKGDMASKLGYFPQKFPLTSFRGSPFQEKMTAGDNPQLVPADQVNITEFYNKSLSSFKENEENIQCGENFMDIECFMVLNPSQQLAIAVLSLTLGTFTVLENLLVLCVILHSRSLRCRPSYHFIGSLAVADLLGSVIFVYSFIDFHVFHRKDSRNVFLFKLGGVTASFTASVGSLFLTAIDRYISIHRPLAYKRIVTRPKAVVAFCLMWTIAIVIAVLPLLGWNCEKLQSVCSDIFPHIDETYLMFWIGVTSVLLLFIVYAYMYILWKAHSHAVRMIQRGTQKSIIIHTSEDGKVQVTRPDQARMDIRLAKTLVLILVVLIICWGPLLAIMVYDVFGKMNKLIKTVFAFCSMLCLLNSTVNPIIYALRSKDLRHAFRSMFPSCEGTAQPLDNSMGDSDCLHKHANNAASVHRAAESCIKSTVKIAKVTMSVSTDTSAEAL
Series [9] can be described thus: Neurotoxicity against mouse HT-22 cells assessed as cell survival at 20 uM treated for 24 hrs by MTS assay. The note with it: ht-22, 24 h. Format: toxicity, cell-based.
Series [10] deals with Glycogen synthase kinase-3 (Sus scrofa, UniProt B2LUN4+I6LNT8). As to the kind of experiment: Inhibition of porcine brain GSK-3alpha/beta using YRRAAVPPSPSLSRHSSPHQpSEDEEE as substrate incubated for 30 mins in presence of ATP by scintillation counting method. Format: tissue-based.
Series [11] concerns the target Dual specificity protein kinase CLK3 (Mus musculus, UniProt O35492). The experiment in a line: Inhibition of GST-fused mouse recombinant CLK3 expressed in Escherichia coli using GRSRSRSRSRSR peptide as substrate incubated for 30 mins in presence of ATP by scintillation counting method.
Series [12] addresses Dual specificity protein kinase CLK2 (Mus musculus, UniProt O35491). The experiment in a line: Inhibition of mouse recombinant GST-fused CLK2 expressed in Escherichia coli using GRSRSRSRSRSR peptide as substrate incubated for 30 mins in presence of ATP by scintillation counting method.
Series [13] deals with T2, Dual specificity tyrosine-phosphorylation-regulated kinase 3 (Homo sapiens, UniProt O43781).
T2 sequence (O43781 whole entry): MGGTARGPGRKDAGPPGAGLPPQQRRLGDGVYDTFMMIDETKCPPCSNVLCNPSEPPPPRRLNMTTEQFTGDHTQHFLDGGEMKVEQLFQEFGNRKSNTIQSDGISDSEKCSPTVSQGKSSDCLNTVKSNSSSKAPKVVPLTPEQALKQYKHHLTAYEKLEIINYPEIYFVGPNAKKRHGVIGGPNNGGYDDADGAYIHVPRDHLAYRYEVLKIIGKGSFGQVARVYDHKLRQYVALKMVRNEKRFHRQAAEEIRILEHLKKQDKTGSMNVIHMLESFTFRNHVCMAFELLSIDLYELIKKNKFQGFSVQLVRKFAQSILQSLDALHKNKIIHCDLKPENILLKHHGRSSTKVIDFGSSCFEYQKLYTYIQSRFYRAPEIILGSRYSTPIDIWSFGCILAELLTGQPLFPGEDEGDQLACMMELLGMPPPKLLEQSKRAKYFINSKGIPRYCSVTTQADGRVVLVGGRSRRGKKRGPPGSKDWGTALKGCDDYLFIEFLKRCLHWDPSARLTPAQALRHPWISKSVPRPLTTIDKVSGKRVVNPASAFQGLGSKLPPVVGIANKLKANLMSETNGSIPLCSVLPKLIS
The experiment in a line: Inhibition of GST-fused human recombinant DYRK3 expressed in Escherichia coli using GRSRSRSRSRSR peptide as substrate incubated for 30 mins in presence of ATP by scintillation counting method.

Series [14] deals with Serine/threonine-protein kinase pim-1 (Homo sapiens, UniProt P11309). The experiment in a line: Inhibition of human recombinant Pim1 expressed in Escherichia coli using histone H1 as substrate incubated for 30 mins in presence of ATP by scintillation counting method.
Sequence of Serine/threonine-protein kinase pim-1 (P11309 whole entry): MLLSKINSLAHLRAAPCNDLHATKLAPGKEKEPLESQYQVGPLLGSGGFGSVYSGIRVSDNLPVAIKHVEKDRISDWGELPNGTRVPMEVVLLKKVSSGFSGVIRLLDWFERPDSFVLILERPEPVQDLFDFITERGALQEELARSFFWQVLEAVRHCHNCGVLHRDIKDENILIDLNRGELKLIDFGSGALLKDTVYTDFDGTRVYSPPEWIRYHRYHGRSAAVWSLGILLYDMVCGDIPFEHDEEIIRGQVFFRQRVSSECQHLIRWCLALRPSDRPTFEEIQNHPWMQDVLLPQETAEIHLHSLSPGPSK
Series [15] deals with Casein kinase 2 (Homo sapiens, UniProt P67870+P68400+P19784+Q8NEV1). The experiment in a line: Inhibition of human recombinant CK2 using RRRDDDSDDD peptide as substrate incubated for 30 mins in presence of ATP by scintillation counting method. Format: protein assay.

Some results are limits rather than exact numbers.

Sequence of Dual specificity protein kinase CLK3 (O35492 whole entry, the tested form may be a part): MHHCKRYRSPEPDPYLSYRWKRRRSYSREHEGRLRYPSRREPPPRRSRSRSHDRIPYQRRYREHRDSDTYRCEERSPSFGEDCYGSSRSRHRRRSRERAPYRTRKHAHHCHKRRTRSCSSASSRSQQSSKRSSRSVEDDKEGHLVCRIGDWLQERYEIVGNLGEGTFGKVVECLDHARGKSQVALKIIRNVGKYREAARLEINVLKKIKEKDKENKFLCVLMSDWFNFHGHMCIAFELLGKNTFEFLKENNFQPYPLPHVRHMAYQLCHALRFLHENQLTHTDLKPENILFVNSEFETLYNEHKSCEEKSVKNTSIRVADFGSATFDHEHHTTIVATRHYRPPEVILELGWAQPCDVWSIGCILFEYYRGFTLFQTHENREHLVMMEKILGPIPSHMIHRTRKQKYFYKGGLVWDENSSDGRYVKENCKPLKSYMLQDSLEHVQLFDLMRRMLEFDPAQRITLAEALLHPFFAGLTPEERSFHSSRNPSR
Sequence of Dual specificity protein kinase CLK2 (O35491 whole entry, the tested form may be a part): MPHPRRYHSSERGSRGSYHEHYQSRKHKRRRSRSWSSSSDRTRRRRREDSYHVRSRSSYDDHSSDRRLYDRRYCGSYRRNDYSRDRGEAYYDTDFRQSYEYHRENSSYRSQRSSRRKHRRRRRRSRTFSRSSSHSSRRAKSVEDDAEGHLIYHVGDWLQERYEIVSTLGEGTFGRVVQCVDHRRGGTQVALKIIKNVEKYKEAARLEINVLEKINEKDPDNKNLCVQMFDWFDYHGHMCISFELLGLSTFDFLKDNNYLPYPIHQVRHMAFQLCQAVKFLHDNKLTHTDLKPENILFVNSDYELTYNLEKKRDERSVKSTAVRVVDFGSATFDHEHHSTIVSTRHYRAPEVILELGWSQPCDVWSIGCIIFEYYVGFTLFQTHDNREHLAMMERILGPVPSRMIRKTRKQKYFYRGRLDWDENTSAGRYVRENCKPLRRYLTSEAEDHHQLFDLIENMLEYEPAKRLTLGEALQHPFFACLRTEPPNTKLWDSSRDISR

Take `CCCCCCc1ccc(NC2=N/C(=C\c3ccc4c(c3)OCO4)C(=O)N2)cc1`: the IC50 in series [1] is 4100 nM; in series [2], more than 10000 nM; in [3] it was more than 10000 nM; in [4], more than 10000 nM; in series [5] it was 9500 nM. For the same compound, the EC50 in series [6] is 1.19 µM. In addition, the Activity was 6.5 in series [7], 75% in series [8] (filed as antagonist) and “Non-Toxic” in [9].

As for `O=C1NC(Nc2ccccc2)=N/C1=C\c1ccc(O)c(O)c1`, the IC50 in series [10] was found to be 1.2 µM; in series [1], 130 nM; in series [11], 2300 nM; in series [2], 210 nM; in series [12] it was 1500 nM; in [3] it was 150 nM. In addition, the IC50 in series [4] was 320 nM; in [5], 270 nM; in [13], 1200 nM; in [14], 840 nM; in series [15] it was 1.5 µM. For the same compound, the EC50 in series [6] is 3.3 µM. The Activity in [7] was 10.1; in [8] it was -22.3%; in series [9], “Non-Toxic”.

In the case of `COc1ccc(/C=C2\N=C(Nc3ccccc3)NC2=O)cc1O`, the IC50 was 4000 nM in series [1]; 4300 nM in [2]; not below 10000 nM in [12]; 2000 nM in [3]; 2800 nM in [4]; 2100 nM in [5]. The IC50 is 2400 nM in series [13], 1900 nM in series [14] and more than 10 µM in series [15]. Besides, in [6], a half-maximal effect (EC50) was put at 5.57 µM. In addition, the values for the Activity in series [7], in series [8] (filed as antagonist) and in series [9] were 6.5, 46.8% and “Non-Toxic”, respectively.

With `CCCCCOc1ccc(NC2=N/C(=C\c3ccc4c(c3)OCO4)C(=O)N2)cc1`, the IC50 in series [10] is more than 10 µM; in series [1], 620 nM; in [11], more than 10000 nM; in series [2] it was 850 nM; in [12], 3100 nM; in [3], 710 nM. For the same compound, the IC50 is 2300 nM in series [4]; 510 nM in series [5]; 7000 nM in [13]; not below 10000 nM in series [14]; 1.3 µM in series [15]. In series [6], this compound registered an EC50 of 1.14 µM. The Activity is 7 in series [7], 37.4% in [8] and “Non-Toxic” in series [9].

Regarding `O=C1NC(Nc2ccc(N3CCNCC3)cc2)=N/C1=C\c1ccc2c(c1)OC=CO2`, the IC50 was 4.6 µM in series [10]; 640 nM in series [1]; more than 10000 nM in [11]; 1100 nM in series [2]; 2300 nM in series [12]; 530 nM in series [3]. Also, the IC50 in series [4] turned out to be 1400 nM; in series [5], 350 nM; in [13] it was 1100 nM; in series [14], 5400 nM; in [15], 3 µM. For the same compound, in series [6], a half-maximal response (EC50) required 1.25 µM. The values for the Activity in series [7], in series [8] and in [9] were 7.3, -20% and “Non-Toxic”, respectively.

With `O=C1NC(Nc2cccc(F)c2)=N/C1=C\c1ccc2c(c1)OCO2`, the IC50 is 0.56 µM in series [10]; 30 nM in [1]; 560 nM in series [11]; 52 nM in series [2]; 130 nM in series [12]; 19 nM in [3]. Besides, the IC50 in series [4] stood at 35 nM; in series [5] it was 23 nM; in series [13] it was 350 nM; in series [14] it was 1200 nM; in series [15] it was 0.8 µM. In series [6], the EC50 worked out at 5 µM. For the same compound, the Activity is 7.5 in [7], 83.4% in series [8] (filed as antagonist) and “Non-Toxic” in series [9].

For the compound `O=C1NC(Nc2ccccc2)=N/C1=C\c1ccc(F)cc1`, the IC50 is 2800 nM in series [1]; more than 10000 nM in series [11]; 3200 nM in [2]; more than 10000 nM in series [12]; 9500 nM in series [3]; more than 10000 nM in series [4]. For the same compound, the results for the IC50 in series [14] and in series [15] were more than 10000 nM and 3.2 µM, respectively. Also, in series [6], the EC50 amounted to 2.85 µM. For the same compound, the Activity was 20.2 in [7], 78% in [8] (filed as antagonist) and “Non-Toxic” in [9].

For the compound `[2H]C1([2H])Oc2ccc(/C=C3\N=C(Nc4ccccc4)NC3=O)cc2O1`, the IC50 came to 0.75 µM in series [10]; 500 nM in series [11]; 40 nM in series [2]; 170 nM in series [12]; 1.6 µM in [15]. For the same compound, the EC50 in [6] amounted to 4.9 µM. For the same compound, the Activity result in series [9] was “Non-Toxic”.

Regarding `O=C1NC(Nc2ccc(Oc3ccccc3)cc2)=N/C1=C\c1ccc2c(c1)OCO2`, the half-maximal inhibitory concentration (IC50) in series [10] is more than 10 µM; in series [1], 760 nM; in series [2], 1800 nM; in series [12], more than 10000 nM; in series [3], 920 nM; in [4], 4000 nM. For the same compound, the IC50 in series [5] amounted to 1100 nM. In addition, the midpoint of the response in series [6], the EC50, lay at 2.4 µM. Moreover, the Activity in series [7] is 4.6; in [8] (filed as antagonist), 73.5%; in series [9], “Non-Toxic”.

As for `COc1cc(/C=C2\N=C(Nc3ccc(N4CCNCC4)cc3)NC2=O)ccc1O`, the IC50 is 6.5 µM in series [10]; 1200 nM in [1]; more than 10000 nM in [11]; 1200 nM in series [2]; 3500 nM in [12]; 1300 nM in [3]. In addition, the IC50 in [4] was 2200 nM; in series [5] it was 2100 nM; in series [13], 1500 nM; in [14], more than 10000 nM. Besides, a half-maximal effect in [6] (EC50) was put at 7 µM. Moreover, the Activity in [7] is 6.3; in series [8], -26.8%; in series [9], “Non-Toxic”.

For the compound `O=C1NC(Nc2ccccc2)=N/C1=C\c1ccccc1`, in series [6], the EC50 was 7.2 µM. Further, the Activity in series [7] is 7.7; in [8] (filed as antagonist) it was 44.6%; in series [9], “Non-Toxic”.
